Data on one molecule can be found in patent US12648913B2, “Polymeric nanocarriers and methods of use thereof” (Vanderbilt University, priority 2019, dated 2026).

For the test, the system named is MDA-MB-231 cells. As to the kind of experiment: MTS proliferation assay on rigid or compliant substrates. It counts as cell-based, human. From the text:
This motivated the hypothesis that blocking Gli-activity in metastatic breast tumors could obstruct their potential to establish in bone and adopt a bone-destructive phenotype. […] It is important to note the large variability in tumor burden inherent to the intracardiac model as evidenced by the large standard error. Even with this variability in consideration, there is significant tumor burden in the 10% Aln-GANT58 treated mice despite maintenance of high bone area (FIG. 18C). Based on the present inventors' previous studies reporting that both rigid mineralized bone matrix and TGF-β drive Gli2 expression in bone-metastatic cancer cell lines, it was hypothesized that GANT58-BTNP treatment may have a spatially heterogeneous effect on tumor cells that mirrors the spatial variation in Gli2 expression. Therefore, the effect of GANT58-BTNP treatment on tumor cell proliferation was measured by measuring Ki67 via IHC (FIG. 14F). […]
Proliferation Assay. […] Cell proliferation was determined by MTS assay using the CellTiter 96 Aqueous Non-Radioactive Cell Proliferation Assay kit (Promega) per the manufacturer's instructions. Absorbance values were measured at OD 490 nm on a plate reader and normalized to no cell controls in the respective GelMA coated and uncoated wells.
(In general: Formazan colour is commonly taken as a measure of viable cells.)

As for `c1cc(-c2sc(-c3ccncc3)c(-c3ccncc3)c2-c2ccncc2)ccn1` [GANT58], the “proliferation of cells on compliant substrates” value (40 μM GANT58, GelMA gels) is “not on compliant substrates”. For the setting “40 μM GANT58, tissue culture plastic”, the “proliferation of cells on rigid substrates” value was “significantly reduced”.
